Drawing on PubChem BioAssay AID1259407 (Chemical Carcinogenesis Research Information System (CCRIS), 2018), this text covers mutagenic call for 5 molecules.

The test system of the data set is CCRIS mutagenicity, Ames/micronucleus/aberration tests. The data set can be described thus: CCRIS mutagenicity studies.
[1] abbreviates: Test System: AMES SALMONELLA TYPHIMURIUM, Strain/Indicator: TA98, Metabolic Activation: NONE, Method: STANDARD PLATE.
The mark [2] stands for this setting: Test System: AMES SALMONELLA TYPHIMURIUM, Strain/Indicator: TA98, Metabolic Activation: RAT, LIVER, S-9, AROCLOR 1254, Method: STANDARD PLATE.
The mark [3] stands for this setting: Test System: AMES SALMONELLA TYPHIMURIUM, Strain/Indicator: TA100, Metabolic Activation: NONE, Method: STANDARD PLATE.
[4] abbreviates: Test System: AMES SALMONELLA TYPHIMURIUM, Strain/Indicator: TA100, Metabolic Activation: RAT, LIVER, S-9, AROCLOR 1254, Method: STANDARD PLATE.

SMILES strings stand for the structures. Activity calls are given as the source filed them. No rule for the calls is given here.

As for `CCOCCc1c(-c2ccccc2)nc(N)n2ncnc12`, the mutagenic call by setting is: under setting [1], “inactive; negative”; under setting [2], “inactive; negative”; under setting [3], “inactive; negative”; under setting [4], “inactive; negative”; (Test System: AMES SALMONELLA TYPHIMURIUM, Strain/Indicator: TA1535, Metabolic Activation: NONE, Method: STANDARD PLATE) “inactive; negative”; (Test System: AMES SALMONELLA TYPHIMURIUM, Strain/Indicator: TA1535, Metabolic Activation: RAT, LIVER, S-9, AROCLOR 1254, Method: STANDARD PLATE) “inactive; negative”. The mutagenic call was “inactive; negative” (Test System: AMES SALMONELLA TYPHIMURIUM, Strain/Indicator: TA1537, Metabolic Activation: NONE, Method: STANDARD PLATE); “inactive; negative” (Test System: AMES SALMONELLA TYPHIMURIUM, Strain/Indicator: TA1537, Metabolic Activation: RAT, LIVER, S-9, AROCLOR 1254, Method: STANDARD PLATE); “inactive; negative” (Test System: AMES SALMONELLA TYPHIMURIUM, Strain/Indicator: TA1538, Metabolic Activation: NONE, Method: STANDARD PLATE); “inactive; negative” (Test System: AMES SALMONELLA TYPHIMURIUM, Strain/Indicator: TA1538, Metabolic Activation: RAT, LIVER, S-9, AROCLOR 1254, Method: STANDARD PLATE); “inactive; negative” (Test System: CHINESE HAMSTER OVARY, Strain/Indicator: CHO-K1-BH4 (HGPRT)/6-THIOGUANINE, Metabolic Activation: NONE); “inactive; negative” (Test System: CHINESE HAMSTER OVARY, Strain/Indicator: CHO-K1-BH4 (HGPRT)/6-THIOGUANINE, Metabolic Activation: RAT, LIVER, S-9, AROCLOR 1254). For the same molecule, the mutagenic call is, setting by setting: (Test System: MOUSE LYMPHOMA, Strain/Indicator: L5178Y (TK+/TK-), Metabolic Activation: NONE, Method: SUSPENSION/PLATE) “inactive; negative”; (Test System: MOUSE LYMPHOMA, Strain/Indicator: L5178Y (TK+/TK-), Metabolic Activation: RAT, LIVER, S-9, AROCLOR 1254, Method: SUSPENSION/PLATE) “inactive; negative”; (Test System: UDS RAT PRIMARY HEPATOCYTES, Strain/Indicator: THY INCORP, Metabolic Activation: NONE, Method: AUTORADIOGRAPHY) “inactive; negative”.
For `C=CCSS(=O)CC=C` (stereo not given), the mutagenic call is, setting by setting: (End Point: IN VITRO CHROMOSOMAL ABERRATIONS, Test System: HUMAN PERIPHERAL BLOOD LYMPHOCYTES, Metabolic Activation: NONE) “inactive; negative”; (End Point: IN VITRO CHROMOSOMAL ABERRATIONS, Test System: HUMAN PERIPHERAL BLOOD LYMPHOCYTES, Metabolic Activation: RAT, LIVER, S-9, PHENOBARBITONE) “inactive; negative”.
Consider `O=C1C=Cc2ccc3c4c(ccc1c24)C(=O)C=C3`, for which the mutagenic call reads like this: (Test System: AMES SALMONELLA TYPHIMURIUM, Strain/Indicator: TA97, Metabolic Activation: NONE, Method: STANDARD PLATE) “active; positive”; (Test System: AMES SALMONELLA TYPHIMURIUM, Strain/Indicator: TA97, Metabolic Activation: RAT, LIVER, S-9, PCB, Method: STANDARD PLATE) “active; positive”; under setting [1], “inactive; negative”; (Test System: AMES SALMONELLA TYPHIMURIUM, Strain/Indicator: TA98, Metabolic Activation: RAT, LIVER, S-9, PCB, Method: STANDARD PLATE) “inactive; negative”; under setting [3], “inactive; negative”; (Test System: AMES SALMONELLA TYPHIMURIUM, Strain/Indicator: TA100, Metabolic Activation: RAT, LIVER, S-9, PCB, Method: STANDARD PLATE) “inactive; negative”.
For the molecule `Nc1ccc([N+](=O)[O-])c(N)c1`, the mutagenic call reads like this: (Test System: AMES SALMONELLA TYPHIMURIUM, Strain/Indicator: TA97, Metabolic Activation: HAMSTER, LIVER, S-9, AROCLOR 1254 (10%), Method: PREINCUBATION) “inactive; negative”; (Test System: AMES SALMONELLA TYPHIMURIUM, Strain/Indicator: TA97, Metabolic Activation: NONE, Method: PREINCUBATION) “inactive; negative”; (Test System: AMES SALMONELLA TYPHIMURIUM, Strain/Indicator: TA97, Metabolic Activation: RAT, LIVER, S-9, AROCLOR 1254 (5, 10 OR 30%), Method: PREINCUBATION) “inactive; negative”; (Test System: AMES SALMONELLA TYPHIMURIUM, Strain/Indicator: TA98, Metabolic Activation: HAMSTER, LIVER, S-9, AROCLOR 1254 (10%), Method: PREINCUBATION) “active; positive”; (Test System: AMES SALMONELLA TYPHIMURIUM, Strain/Indicator: TA98, Metabolic Activation: NONE, Method: PREINCUBATION) “active; positive”; (Test System: AMES SALMONELLA TYPHIMURIUM, Strain/Indicator: TA98, Metabolic Activation: RAT, LIVER, S-9, AROCLOR 1254 (10%), Method: PREINCUBATION) “active; positive”. In addition, the mutagenic call is “inactive; negative” (Test System: AMES SALMONELLA TYPHIMURIUM, Strain/Indicator: TA100, Metabolic Activation: HAMSTER, LIVER, S-9, AROCLOR 1254 (10%), Method: PREINCUBATION); “inactive; negative” (Test System: AMES SALMONELLA TYPHIMURIUM, Strain/Indicator: TA100, Metabolic Activation: NONE, Method: PREINCUBATION); “inactive; negative” (Test System: AMES SALMONELLA TYPHIMURIUM, Strain/Indicator: TA100, Metabolic Activation: RAT, LIVER, S-9, AROCLOR 1254 (10%), Method: PREINCUBATION); “inactive; negative” (Test System: AMES SALMONELLA TYPHIMURIUM, Strain/Indicator: TA1535, Metabolic Activation: HAMSTER, LIVER, S-9, AROCLOR 1254 (10%), Method: PREINCUBATION); “inactive; negative” (Test System: AMES SALMONELLA TYPHIMURIUM, Strain/Indicator: TA1535, Metabolic Activation: NONE, Method: PREINCUBATION); “inactive; negative” (Test System: AMES SALMONELLA TYPHIMURIUM, Strain/Indicator: TA1535, Metabolic Activation: RAT, LIVER, S-9, AROCLOR 1254 (10%), Method: PREINCUBATION). For the same molecule, the mutagenic call runs as follows: (Test System: AMES SALMONELLA TYPHIMURIUM, Strain/Indicator: TA1537, Metabolic Activation: HAMSTER, LIVER, S-9, AROCLOR 1254 (10%), Method: PREINCUBATION) “active; positive”; (Test System: AMES SALMONELLA TYPHIMURIUM, Strain/Indicator: TA1537, Metabolic Activation: NONE, Method: PREINCUBATION) “inactive; negative”; (Test System: AMES SALMONELLA TYPHIMURIUM, Strain/Indicator: TA1537, Metabolic Activation: RAT, LIVER, S-9, AROCLOR 1254 (10%), Method: PREINCUBATION) “inactive; negative”.
`CC1=C[C@H]2O[C@@H]3[C@H](O)C[C@](C)([C@@]2(CO)[C@H](O)C1=O)[C@]31CO1`: the mutagenic call is, setting by setting: (End Point: IN VITRO CHROMOSOMAL ABERRATIONS, Test System: CHINESE HAMSTER V79 CELLS, Metabolic Activation: NONE) “active; positive (structural changes)”; under setting [1], “inactive; negative”; (Test System: AMES SALMONELLA TYPHIMURIUM, Strain/Indicator: TA98, Metabolic Activation: RAT LIVER S-9, DELOR 103, Method: STANDARD PLATE) “inactive; negative”; under setting [2], “inactive; negative”; under setting [3], “inactive; negative”; (Test System: AMES SALMONELLA TYPHIMURIUM, Strain/Indicator: TA100, Metabolic Activation: RAT LIVER S-9, DELOR 103, Method: STANDARD PLATE) “inactive; negative”. For the same molecule, the mutagenic call under setting [4] was “inactive; negative”.
